Values joined by “and” are separate entries in the source; they are usually repeats but may differ in a detail not shown here. Equal values may be shown once.
Columns and labels:
[1] = test system: GFP–CaMKII in rat hippocampal neurons; test: cLTP-induced CaMKII synaptic enrichment in dissociated hippocampal cultures (GFP–CaMKII WT); type: cell-based; details: for CaMKII synaptic enrichment: GFP-CaMKII WT, individual neurons, sheet 4e
[2] = test system: CA1 LTP in CaMKII F89G-expressing slices; test: LTP field recordings in slices of CaMKIIα KO mice injected with AAV-mScarlet-CaMKII-F89G; type: cell-based, mouse; details: for LTP time course, normalized response per slice (sheet 5d): individual slices, NM-PP1 vs Vehicle, in %
Procedure: Stereotactic injections were performed on P24 CaMKIIα KO mice. Animals were anesthetized with an intraperitoneal injection of 2,2,2-Tribromoethanol (250 mg kg^−1) and then head fixed to a stereotactic frame (David Kopf Instruments). AAVs (0.2–0.5 µl) were injected into intermediate CA1 at a rate of […] using a syringe pump (World Precision Instruments). Coordinates (in millimetres) were anterior–posterior: −3.17; mediolateral: ±3.45 (relative to Bregma); and dorsoventral: −2.5 (relative to pia). To confirm specificity of the injection site following LTP recordings, slices were fixed in 4% paraformaldehyde; then, they were coverslipped and imaged on an Olympus slide scanning microscope.
WT and mutant mouse hippocampal slices were prepared using P56–P70 mice. Isoflurane-anesthetized mice were rapidly decapitated, and the brain was dissected in an ice-cold high-sucrose solution containing 220 mM sucrose, 12 mM MgSO4, 10 mM glucose, 0.2 mM CaCl2, 0.5 mM KCl, 0.65 mM NaH2PO4, 13 mM NaHCO3 and 1.8 mM ascorbate. Transverse hippocampal slices (400 μm) were made using a tissue chopper (McIlwain) and transferred into 32 °C ACSF containing 124 mM NaCl, 3.5 mM KCl, 1.3 mM NaH2PO4, 26 mM NaHCO3, 10 mM glucose, 2 mM CaCl2, 1 mM MgSO4 and 1.8 mM ascorbate. All slices were recovered in 95% O2/5% CO2 for at least 1.5 h before experimentation.
For electrophysiological slice recording experiments, a glass micropipette (typical resistance of 0.4–0.8 megaohm when filled with ACSF) was used to record fEPSPs from the CA1 dendritic layer in response to stimulation of the Schaffer collaterals using a tungsten bipolar electrode. Slices were continually perfused with 30.5 °C ± 0.5 °C ACSF at a rate of 2.5 ± 0.5 ml min^−1 during recordings. Stimuli were delivered every 20 s, and three responses (1 min) were averaged for analysis. Data were analysed using WinLTP software with slope calculated as the initial rise from 10 to 60% of the response peak. Input–output curves were generated by increasing the stimulus intensity at a constant interval until a maximum response or population spike was noted to determine stimulation that elicits 50% of maximum slope. […] A stable baseline was acquired for a minimum of 20 min at 50% maximum slope before high-frequency stimulation (HFS; 2 × 100 Hz, 10 s interval) was applied. Responses were recorded for 40 or 60 min after HFS. Change in slope was calculated as a ratio of the average slope of the 20 min baseline (before HFS). Bar graphs of the percentage of fEPSP slope were calculated by averaging the last 10 min time points post-HFS and normalized to baseline.

Aurora-C(h) = Aurora-C(h) (Homo sapiens, UniProt Q9UQB9); test: Kinase selectivity panel (residual activity at 1 μM); type: biochemical; details: inhibitor at 1 μM; read-out: residual kinase activity in % of maximal activity
Chain of Aurora-C(h) (Q9UQB9 whole entry): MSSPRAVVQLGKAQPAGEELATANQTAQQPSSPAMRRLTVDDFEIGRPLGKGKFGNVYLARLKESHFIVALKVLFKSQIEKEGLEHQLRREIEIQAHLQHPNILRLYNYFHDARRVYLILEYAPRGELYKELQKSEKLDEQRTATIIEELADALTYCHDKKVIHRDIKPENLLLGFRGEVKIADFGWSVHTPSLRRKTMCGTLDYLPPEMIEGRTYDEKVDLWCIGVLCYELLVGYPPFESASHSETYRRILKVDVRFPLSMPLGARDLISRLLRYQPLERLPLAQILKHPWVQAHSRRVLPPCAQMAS

CaMKIIδ(h) = CaMKIIδ(h) (Homo sapiens, UniProt Q13557); test: as above; type: biochemical; details: inhibitor at 1 μM; read-out: residual kinase activity in % of maximal activity
Chain of CaMKIIδ(h) (Q13557 whole entry): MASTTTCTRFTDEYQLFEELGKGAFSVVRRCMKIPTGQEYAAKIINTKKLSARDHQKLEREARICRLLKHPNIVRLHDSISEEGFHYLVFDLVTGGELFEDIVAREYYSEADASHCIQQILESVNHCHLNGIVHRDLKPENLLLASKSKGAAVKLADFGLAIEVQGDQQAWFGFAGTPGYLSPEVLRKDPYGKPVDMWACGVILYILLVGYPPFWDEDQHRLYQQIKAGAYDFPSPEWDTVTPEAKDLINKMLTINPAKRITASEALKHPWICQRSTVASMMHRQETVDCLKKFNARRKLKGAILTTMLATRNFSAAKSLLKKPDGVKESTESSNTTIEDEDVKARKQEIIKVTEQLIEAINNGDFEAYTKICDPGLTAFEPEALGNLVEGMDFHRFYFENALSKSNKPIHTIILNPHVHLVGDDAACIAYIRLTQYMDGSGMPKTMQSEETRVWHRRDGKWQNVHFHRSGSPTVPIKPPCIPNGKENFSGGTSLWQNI

CaMKIV(h) = CaMKIV(h) (Homo sapiens, UniProt Q16566); test: as above; type: biochemical; details: inhibitor at 1 μM; read-out: residual kinase activity in % of maximal activity
Chain of CaMKIV(h) (Q16566 whole entry): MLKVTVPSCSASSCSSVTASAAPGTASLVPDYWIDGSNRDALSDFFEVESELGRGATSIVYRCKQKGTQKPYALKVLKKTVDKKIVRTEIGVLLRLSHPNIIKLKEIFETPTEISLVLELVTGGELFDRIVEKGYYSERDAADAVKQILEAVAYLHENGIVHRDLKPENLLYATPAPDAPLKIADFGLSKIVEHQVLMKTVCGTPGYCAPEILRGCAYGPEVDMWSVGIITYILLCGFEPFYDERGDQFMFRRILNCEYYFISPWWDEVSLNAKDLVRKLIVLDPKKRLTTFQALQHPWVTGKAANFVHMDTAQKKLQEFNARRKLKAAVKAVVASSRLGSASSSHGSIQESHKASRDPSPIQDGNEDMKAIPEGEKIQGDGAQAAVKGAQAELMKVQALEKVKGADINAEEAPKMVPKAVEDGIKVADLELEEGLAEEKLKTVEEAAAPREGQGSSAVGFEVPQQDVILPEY

JNK2α2(h) = JNK2α2(h) (Homo sapiens, UniProt P45984); test: as above; type: biochemical; details: inhibitor at 1 μM
Chain of JNK2α2(h) (P45984 whole entry): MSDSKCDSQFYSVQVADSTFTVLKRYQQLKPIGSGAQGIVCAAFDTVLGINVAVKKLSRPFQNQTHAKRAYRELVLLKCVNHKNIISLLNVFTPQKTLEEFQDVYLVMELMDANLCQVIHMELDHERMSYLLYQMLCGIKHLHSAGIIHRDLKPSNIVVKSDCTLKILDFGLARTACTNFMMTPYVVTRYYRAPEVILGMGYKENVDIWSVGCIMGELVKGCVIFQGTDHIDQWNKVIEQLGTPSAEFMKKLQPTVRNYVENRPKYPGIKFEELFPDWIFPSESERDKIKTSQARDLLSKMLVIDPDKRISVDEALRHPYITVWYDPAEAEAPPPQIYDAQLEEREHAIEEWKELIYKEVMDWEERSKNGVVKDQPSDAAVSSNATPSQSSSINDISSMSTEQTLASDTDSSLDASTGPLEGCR

Compound | CaMKII synaptic enrichment ([1]; NMPP1, before cLTP) | CaMKII synaptic enrichment ([1]; after cLTP in NMPP1) | effect on LTP induction in CaMKII F89G slices ([2]; NM-PP1 10 μM) | LTP time course, normalized response per slice (sheet 5d) ([2]; Time (min) 0) | LTP time course, normalized response per slice (sheet 5d) ([2]; Time (min) 2.33333) | LTP time course, normalized response per slice (sheet 5d) ([2]; Time (min) 4.33333) | LTP time course, normalized response per slice (sheet 5d) ([2]; Time (min) 6.33333) | LTP time course, normalized response per slice (sheet 5d) ([2]; Time (min) -2) | LTP time course, normalized response per slice (sheet 5d) ([2]; Time (min) -4) | LTP time course, normalized response per slice (sheet 5d) ([2]; Time (min) -6) | remaining activity at 1 µM (Aurora-C(h)) [%] | remaining activity at 1 µM (CaMKIIδ(h)) [%] | remaining activity at 1 µM (CaMKIV(h)) [%] | residual kinase activity in % of maximal activity (JNK2α2(h)) [%] | effect on CaMKII movement to excitatory synapses in response to cLTP ([1]; AS283)
CC(C)(C)n1nc(Cc2cccc3ccccc23)c2c(N)ncnc21 [NM-PP1] | 1.457 and 1.288 and 1.299 and 1.252 and 1.168 and 1.649 | 2.238 and 1.828 and 2.413 and 1.827 and 1.651 and 2.282 | enabled | 103.829 and 96.437 and 102.744 and 120.959 and 123.914 and 192.297 and 144.344 and 104.217 and 103.642 and 100.747 and 103.258 and 105.141 and 101.674 and 96.3411 and 105.44 | 150.168 and 204.285 and 322.186 and 119.321 and 114.899 and 190.522 and 128.721 and 184.151 and 177.879 and 161.407 and 188.756 and 121.03 and 118.847 and 177.028 and 124.93 | 139.017 and 204.469 and 290.028 and 113.213 and 106.868 and 195.712 and 130.419 and 192.043 and 166.691 and 143.621 and 171.089 and 117.041 and 117.676 and 154.052 and 148.947 | 131.831 and 176.494 and 247.758 and 112.468 and 113.588 and 169.626 and 124.646 and 168.164 and 143.426 and 132.43 | 105.316 and 104.903 and 86.159 and 100.7 and 102.934 and 111.991 and 100.871 and 90.8613 and 108.408 and 99.877 and 100.511 and 99.326 and 97.9659 and 101.831 and 107.897 | 102.838 and 104.535 and 87.5747 and 99.3595 and 101.459 and 104.616 and 103.249 and 75.684 and 101.138 and 101.174 and 99.4129 and 111.767 and 97.478 and 110.855 and 98.9622 | 101.103 and 99.9338 and 95.867 and 99.0615 and 102.77 and 102.977 and 108.004 and 99.3605 and 103.117 and 97.9481 and 103.441 and 114.539 and 103.918 and 97.8041 and 96.1755 |  |  |  |  | 
NCCNc1cccc(-c2ccnc3[nH]c4ccccc4c23)c1 [AS283] |  |  |  |  |  |  |  |  |  |  | 63 | 2 | 90 | 82 | did not interfere

From article PMC10482691, “LTP induction by structural rather than enzymatic functions of CaMKII” (Nature, 2023)
